Experimental data reported in patent US20140315809A1, “CALCIMIMETICS AND METHODS FOR THEIR USE” (KAI PHARMACEUTICALS INC., priority 2011, published 2014).
Read-outs that look alike come from different tables or passages of the source.

Key:
[1] = test system: patients diagnosed with CKD-BMD and SHPT receiving hemodialysis; experiment: Single-dose clinical study: corrected calcium; type: in vivo, human; settings: single IV bolus 5-60 mg
Experimental: (§1) A clinical study was performed to assess the safety and tolerability of rising single doses of Ac-c(C)arrrar-NH2 (SEQ ID NO:3), administered by IV bolus to patients diagnosed with CKD-BMD and SHPT, and who were receiving hemodialysis. Data were generated to measure changes in patient serum intact PTH (iPTH) and serum calcium as well as bioavailability of the single dose of Ac-c(C)arrrar-NH2 (SEQ ID NO:3).
A double-blind, randomized, placebo-controlled, multicenter study in subjects receiving thrice-weekly hemodialysis (HD) was designed and carried out. The major inclusion criteria included hemodialysis for at least 3 months prior to the start of the study, a serum iPTH level greater than 300 pg/mL, a serum cCa (corrected calcium) level greater than or equal to 9.0 mg/dL and receiving of stable doses of active vitamin D or analogs, phosphate binders, and calcium supplements. […]
Serum iPTH levels were determined using the electrochemiluminescence immunoassay (ECLIA) on the Roche Elecsys® analyzer. Calcium levels were adjusted for albumin <4 g/dL with the following equation: cCa=[measured Ca in mg/dL]+[4-(albumin in g/dL)]×0.8
The effects of Ac-c(C)arrrar-NH2 (SEQ ID NO:3) administration on serum iPTH and corrected calcium levels was also determined in this study. […] Blood from each subject was then analyzed to determine levels of iPTH and corrected calcium. […]

[2] = Single-dose clinical study: pharmacokinetics, noncompartmental analysis; type: in vivo, human; settings: for clearance / AUC / Cmax / half-life / Vd: human; for Vd: read-out: Vss
Experimental: as §1
(§2) A double-blind, randomized, placebo-controlled, multicenter study in subjects receiving thrice-weekly hemodialysis (HD) was designed and carried out. The major inclusion criteria included hemodialysis for at least 3 months prior to the start of the study, a serum iPTH level greater than 300 pg/mL, a serum cCa (corrected calcium) level greater than or equal to 9.0 mg/dL and receiving of stable doses of active vitamin D or analogs, phosphate binders, and calcium supplements.
(§3) Cohorts 1, 2 and 3 were conducted with a two-period crossover design. Each cohort enrolled 4 subjects randomized 1:1 to Ac-c(C)arrrar-NH2 (SEQ ID NO:3) followed by placebo or placebo followed by Ac-c(C)arrrar-NH2 (SEQ ID NO:3). The dose levels of Ac-c(C)arrrar-NH2 (SEQ ID NO:3) for Cohorts 1-3 were 5, 10 and 20 mg. Cohort 4 enrolled 8 subjects who were randomized 1:1 to 40 mg Ac-c(C)arrrar-NH2 (SEQ ID NO:3) or placebo in a parallel group. Cohort 5 enrolled 8 subjects were randomized 1:1 to 60 mg Ac-c(C)arrrar-NH2 (SEQ ID NO:3) or placebo in a parallel group.
(§4) Ac-c(C)arrrar-NH2 (SEQ ID NO:3) or placebo was administered by IV bolus injection 2-4 hours following completion of HD.
Pharmacokinetic (PK) analysis was performed on samples obtained from the treated subjects to determine bioavailability of the administered Ac-c(C)arrrar-NH2 (SEQ ID NO:3). […] Clearance (CL) and volume of distribution as steady state (Vss) values appear to be dose-independent over the range evaluation. Total clearance of Ac-c(C)arrrar-NH2 (SEQ ID NO:3) was approximately about 2 L/h. Ac-c(C)arrrar-NH2 (SEQ ID NO:3) was readily cleared from the central compartment by hemodialysis.

[3] = test system: patients diagnosed with CKD-BMD and SHPT receiving hemodialysis; experiment: Single-dose clinical study: adverse events; type: in vivo, human; settings: for Adverse Event: Anemia / Adverse Event: Congestive heart failure / Adverse Event: Decreased ionized calcium / Adverse Event: Gastro-esophageal reflux / Adverse Event: Injection site pruritis / Adverse Event: Paresthesias / Adverse Event: Pneumonia / Adverse Event: Toothache / Number of subjects with ≧1 AE: n (%) of subjects
Experimental: as §1, §2, §3, §4
Adverse events were captured through 7 days after study drug administration.
Adverse events experienced by each of the subjects was recorded for 7 days after administration of the Ac-c(C)arrrar-NH2 (SEQ ID NO:3) or placebo. A single serious adverse event occurred in one subject who had been treated with placebo in the 10 mg dose cohort. The subject discontinued form the study prior to receiving Ac-c(C)arrrar-NH2 (SEQ ID NO:3). There were no reports of nausea, vomiting or diarrhea.

[4] = test system: 5/6 nephrectomy (Nx) rat model of renal insufficiency; experiment: PTH suppression in 5/6 Nx rats, daily dosing for 28 days; type: in vivo; settings: daily 28 days, Ac-c(C)arrrar-NH2 1 mg/kg IV, cinacalcet 10 mg/kg PO
Experimental: The therapeutic efficacy of Ac-c(C)arrrar-NH2 (SEQ ID NO:3) was assessed using the 5/6 nephrectomy (Nx) rat model of renal insufficiency. The 5/6 Nx male rats were obtained from Charles River Laboratories (Wilmington, Mass.). These rats have undergone surgical removal of one kidney and ⅔ of the other kidney and were fed a high-phosphate diet. All experimental procedures with animals were performed according to IACUC guidelines. Statistical analysis was performed using one-way ANOVA with Bonferroni post test. All p-values are nominal.
Tail vein blood samples were taken periodically for measurement of PTH. PTH was measured using the Immutopics BioActive Intact ELISA (Cat #60-2700; Immutopics, San Clemente, Calif.).

[5] = plasma, Cohort 1, 5 mg single IV bolus, hemodialysis subjects, geometric mean
[6] = plasma, Cohort 2, 10 mg single IV bolus, hemodialysis subjects, geometric mean
[7] = plasma, Cohort 3, 20 mg single IV bolus, hemodialysis subjects, geometric mean
[8] = plasma, Cohort 4, 40 mg single IV bolus, hemodialysis subjects, geometric mean
[9] = plasma, Cohort 5, 60 mg single IV bolus, hemodialysis subjects, geometric mean

CC(=O)N[C@H](CSSC[C@H](N)C(=O)O)C(=O)N[C@H](C)C(=O)N[C@H](CCCNC(=N)N)C(=O)N[C@H](CCCNC(=N)N)C(=O)N[C@H](CCCNC(=N)N)C(=O)N[C@H](C)C(=O)N[C@H](CCCNC(=N)N)C(N)=O [Ac-c(C)arrrar-NH2]
corrected calcium level, lowest in any subject at any time during the study [1]: ≥ 7.5 mg/dL
Clearance (CL) and volume of distribution (Vss) relative to dose ([2]; 5-60 mg single IV bolus): dose-independent
total plasma exposure (Cmax and AUCall) relative to dose ([2]; 5-60 mg single IV bolus): reasonably proportional to the administered dose
clearance ([2]; in vivo, intravenous, estimated, hemodialysis subjects, read-out: Hemodialysis clearance (converted)): ~550 mL/min
AUC [2, 5]: 1080 ng·h/mL
Cmax [2, 5]: 133 ng/mL
clearance ([2]; plasma, Cohort 1, 5 mg single IV bolus, hemodialysis subjects, geometric mean, read-out: CL (converted)): 28 mL/min
half-life ([2]; plasma, Cohort 1, 5 mg single IV bolus, hemodialysis subjects, geometric mean, read-out: T½ (converted)): 121 h
Vd [2, 5]: 278 L
AUC [2, 6]: 2770 ng·h/mL
Cmax [2, 6]: 257 ng/mL
clearance ([2]; plasma, Cohort 2, 10 mg single IV bolus, hemodialysis subjects, geometric mean, read-out: CL (converted)): 31.8 mL/min
half-life ([2]; plasma, Cohort 2, 10 mg single IV bolus, hemodialysis subjects, geometric mean, read-out: T½ (converted)): 81.7 h
Vd [2, 6]: 203 L
AUC [2, 7]: 4680 ng·h/mL
Cmax [2, 7]: 479 ng/mL
clearance ([2]; plasma, Cohort 3, 20 mg single IV bolus, hemodialysis subjects, geometric mean, read-out: CL (converted)): 20.2 mL/min
half-life ([2]; plasma, Cohort 3, 20 mg single IV bolus, hemodialysis subjects, geometric mean, read-out: T½ (converted)): 175 h
Vd [2, 7]: 293 L
AUC [2, 8]: 8890 ng·h/mL
Cmax [2, 8]: 686 ng/mL
AUC [2, 9]: 14800 ng·h/mL
Cmax [2, 9]: 1080 ng/mL
clearance ([2]; plasma, Cohort 5, 60 mg single IV bolus, hemodialysis subjects, geometric mean, read-out: CL (converted)): 24.2 mL/min
half-life ([2]; plasma, Cohort 5, 60 mg single IV bolus, hemodialysis subjects, geometric mean, read-out: T½ (converted)): 115 h
Vd [2, 9]: 232 L
half-life ([2]; plasma, across the dose range 5-60 mg single IV bolus, read-out: geometric mean terminal elimination half-life): 81.7 to 175 h
clearance ([2]; plasma, single IV bolus, hemodialysis subjects, read-out: Total clearance (converted)): ~33.3 mL/min
Adverse Event: Anemia ([3]; 5 mg dose cohort): 0 (0%)
Adverse Event: Congestive heart failure ([3]; 5 mg dose cohort): 0 (0%)
Adverse Event: Decreased ionized calcium ([3]; 5 mg dose cohort): 0 (0%)
Adverse Event: Gastro-esophageal reflux ([3]; 5 mg dose cohort): 1 (25%)
Adverse Event: Injection site pruritis ([3]; 5 mg dose cohort): 0 (0%)
Adverse Event: Paresthesias ([3]; 5 mg dose cohort): 1 (25%)
Adverse Event: Pneumonia ([3]; 5 mg dose cohort): 0 (0%)
Adverse Event: Toothache ([3]; 5 mg dose cohort): 0 (0%)
Number of subjects with ≧1 AE ([3]; 5 mg dose cohort): 1 (25%)
Adverse Event: Anemia ([3]; 10 mg dose cohort): 0 (0%)
Adverse Event: Congestive heart failure ([3]; 10 mg dose cohort): 0 (0%)
Adverse Event: Decreased ionized calcium ([3]; 10 mg dose cohort): 1 (33%)
Adverse Event: Gastro-esophageal reflux ([3]; 10 mg dose cohort): 0 (0%)
Adverse Event: Injection site pruritis ([3]; 10 mg dose cohort): 0 (0%)
Adverse Event: Paresthesias ([3]; 10 mg dose cohort): 0 (0%)
Adverse Event: Pneumonia ([3]; 10 mg dose cohort): 0 (0%)
Adverse Event: Toothache ([3]; 10 mg dose cohort): 0 (0%)
Number of subjects with ≧1 AE ([3]; 10 mg dose cohort): 1 (33%)
Adverse Event: Anemia ([3]; 20 mg dose cohort): 0 (0%)
Adverse Event: Congestive heart failure ([3]; 20 mg dose cohort): 0 (0%)
Adverse Event: Decreased ionized calcium ([3]; 20 mg dose cohort): 0 (0%)
Adverse Event: Gastro-esophageal reflux ([3]; 20 mg dose cohort): 0 (0%)
Adverse Event: Injection site pruritis ([3]; 20 mg dose cohort): 0 (0%)
Adverse Event: Paresthesias ([3]; 20 mg dose cohort): 0 (0%)
Adverse Event: Pneumonia ([3]; 20 mg dose cohort): 0 (0%)
Adverse Event: Toothache ([3]; 20 mg dose cohort): 1 (25%)
Number of subjects with ≧1 AE ([3]; 20 mg dose cohort): 1 (25%)
Adverse Event: Anemia ([3]; 40 mg dose cohort): 0 (0%)
Adverse Event: Congestive heart failure ([3]; 40 mg dose cohort): 0 (0%)
Adverse Event: Decreased ionized calcium ([3]; 40 mg dose cohort): 4 (100%)
Adverse Event: Gastro-esophageal reflux ([3]; 40 mg dose cohort): 0 (0%)
Adverse Event: Injection site pruritis ([3]; 40 mg dose cohort): 1 (25%)
Adverse Event: Paresthesias ([3]; 40 mg dose cohort): 1 (25%)
Adverse Event: Pneumonia ([3]; 40 mg dose cohort): 0 (0%)
Adverse Event: Toothache ([3]; 40 mg dose cohort): 0 (0%)
Number of subjects with ≧1 AE ([3]; 40 mg dose cohort): 4 (100%)
Adverse Event: Anemia ([3]; 60 mg dose cohort): 0 (0%)
Adverse Event: Congestive heart failure ([3]; 60 mg dose cohort): 0 (0%)
Adverse Event: Decreased ionized calcium ([3]; 60 mg dose cohort): 2 (50%)
Adverse Event: Gastro-esophageal reflux ([3]; 60 mg dose cohort): 0 (0%)
Adverse Event: Injection site pruritis ([3]; 60 mg dose cohort): 0 (0%)
Adverse Event: Paresthesias ([3]; 60 mg dose cohort): 0 (0%)
Adverse Event: Pneumonia ([3]; 60 mg dose cohort): 0 (0%)
Adverse Event: Toothache ([3]; 60 mg dose cohort): 0 (0%)
Number of subjects with ≧1 AE ([3]; 60 mg dose cohort): 2 (50%)
tolerability ([3]; single IV bolus 5-60 mg): very well-tolerated
reports of nausea, vomiting or diarrhea ([3]; single IV bolus 5-60 mg, 7 days after administration): no reports

C[C@@H](NCCCc1cccc(C(F)(F)F)c1)c1cccc2ccccc12 [cinacalcet]
PTH levels (in words) ([4]; 6 hours after the last dosing): reduced
PTH levels (in words) ([4]; 16 hours after the last dosing): increased
PTH levels (in words) ([4]; 48 hours after the last dosing): increased
